From ChEMBL document CHEMBL3885881, “DrugMatrix”
“And” between values parts separate entries of the source, which are not always exact repeats. Equal entries are not always repeated.

Species on record: Rattus norvegicus
Assay: DrugMatrix - Regimen: Daily Repeat
Format: toxicity, organism-based, Sprague-Dawley
Parameters: regimen Daily Repeat, gender Male, age 6-8 weeks
Details: in vivo, po, route oral GAVAGE, vehicle .5 % CMC; for BASOPHIL / EOSINOPHIL / ERYTHROCYTE COUNT / HEMATOCRIT / HEMOGLOBIN / LEUKOCYTE COUNT / LYMPHOCYTE / MEAN CORPUSCULAR HEMOGLOBIN / MEAN CORPUSCULAR HEMOGLOBIN CONCENTRATION / MEAN CORPUSCULAR VOLUME / MONOCYTE / NEUTROPHIL / PLATELET COUNT / ABSOLUTE BASOPHIL / ABSOLUTE EOSINOPHIL / ABSOLUTE LYMPHOCYTE / ABSOLUTE MONOCYTE / ABSOLUTE SEGMENTED NEUTROPHIL: tissue Blood; for ALANINE AMINOTRANSFERASE / ALBUMIN / ALKALINE PHOSPHATASE / ASPARTATE AMINOTRANSFERASE / BLOOD UREA NITROGEN / CHLORIDE / CHOLESTEROL / CREATINE PHOSPHOKINASE / CREATININE / GLUCOSE / PHOSPHORUS / POTASSIUM / SODIUM / TOTAL BILIRUBIN / TOTAL PROTEIN / LACTATE DEHYDROGENASE / LIPASE / URIC ACID: tissue Plasma
[1] = 0 mg/kg, 72 h, dose level Control, time 3 day
[2] = 0 mg/kg, 120 h, dose level Control, time 5 day
[3] = 0 mg/kg, 2184 h, dose level Control, time 91 day
[4] = 0 mg/kg, […], dose level Control, time 28 day
[5] = 0.0007 mg/kg, 120 h, dose level Low, time 5 day
[6] = 0.0007 mg/kg, 2184 h, dose level Low, time 91 day

Clc1cc2c(cc1Cl)Oc1cc(Cl)c(Cl)cc1O2 [2,3,7,8-TETRACHLORODIBENZO-P-DIOXIN]
BASOPHIL [1]: 0.52%
EOSINOPHIL [1]: 0.48%
ERYTHROCYTE COUNT [1]: 6.68 x10E6/uL
HEMATOCRIT [1]: 43.07%
HEMOGLOBIN [1]: 13.48 G/DL
LEUKOCYTE COUNT [1]: 11.41 x10E3/uL
LYMPHOCYTE [1]: 80.78%
MEAN CORPUSCULAR HEMOGLOBIN [1]: 20.2 pg
MEAN CORPUSCULAR HEMOGLOBIN CONCENTRATION [1]: 31.32 G/DL
MEAN CORPUSCULAR VOLUME [1]: 64.45 fL
MONOCYTE [1]: 2.23%
NEUTROPHIL [1]: 14.73%
PLATELET COUNT [1]: 1225.83 x10E3/uL
ALANINE AMINOTRANSFERASE [1]: 44.5 u/L
ALBUMIN [1]: 3.62 G/DL
ALKALINE PHOSPHATASE [1]: 404.5 u/L
ASPARTATE AMINOTRANSFERASE [1]: 71.67 u/L
BLOOD UREA NITROGEN [1]: 15 mg/dL
CHLORIDE [1]: 103 MEQ/L
CHOLESTEROL [1]: 96.83 mg/dL
CREATINE PHOSPHOKINASE [1]: 236 u/L
CREATININE [1]: 0.43 mg/dL
GLUCOSE [1]: 186.83 mg/dL
PHOSPHORUS [1]: 12.67 mg/dL
POTASSIUM [1]: 7.1 MEQ/L
SODIUM [1]: 147.33 MEQ/L
TOTAL BILIRUBIN [1]: 0.52 mg/dL
TOTAL PROTEIN [1]: 6.18 G/DL
ABSOLUTE BASOPHIL [2]: 92 cells/µL
ABSOLUTE EOSINOPHIL [2]: 52 cells/µL
ABSOLUTE LYMPHOCYTE [2]: 6560 cells/µL
ABSOLUTE MONOCYTE [2]: 160 cells/µL
ABSOLUTE SEGMENTED NEUTROPHIL [2]: 1130 cells/µL
BASOPHIL [2]: 1.14% and 0.92%
EOSINOPHIL [2]: 0.68% and 0.43%
ERYTHROCYTE COUNT [2]: 7.51 x10E6/uL and 7.03 x10E6/uL
HEMATOCRIT [2]: 46.04% and 46.55%
HEMOGLOBIN [2]: 15.62 G/DL and 14.32 G/DL
LEUKOCYTE COUNT [2]: 8.03 x10E3/uL and 12.22 x10E3/uL
LYMPHOCYTE [2]: 81.54% and 82.65%
MEAN CORPUSCULAR HEMOGLOBIN [2]: 20.84 pg and 20.35 pg
MEAN CORPUSCULAR HEMOGLOBIN CONCENTRATION [2]: 33.94 G/DL and 30.77 G/DL
MEAN CORPUSCULAR VOLUME [2]: 61.42 fL and 66.28 fL
MONOCYTE [2]: 2% and 2.28%
NEUTROPHIL [2]: 14.24% and 12.73%
PLATELET COUNT [2]: 1427.2 x10E3/uL and 1268.67 x10E3/uL
ALANINE AMINOTRANSFERASE [2]: 35.6 u/L and 44.5 u/L
ALBUMIN [2]: 3.64 G/DL and 3.73 G/DL
ALKALINE PHOSPHATASE [2]: 233 u/L and 340.83 u/L
ASPARTATE AMINOTRANSFERASE [2]: 81 u/L and 66.5 u/L
BLOOD UREA NITROGEN [2]: 12 mg/dL and 13.33 mg/dL
CHLORIDE [2]: 109.4 MEQ/L and 102.17 MEQ/L
CHOLESTEROL [2]: 47.6 mg/dL and 82.17 mg/dL
CREATINE PHOSPHOKINASE [2]: 183.2 u/L and 146.67 u/L
CREATININE [2]: 0.4 mg/dL and 0.35 mg/dL
GLUCOSE [2]: 134.6 mg/dL and 186.17 mg/dL
LACTATE DEHYDROGENASE [2]: 89.4 u/L
LIPASE [2]: 17.2 u/L
PHOSPHORUS [2]: 13.02 mg/dL and 11.83 mg/dL
POTASSIUM [2]: 7 MEQ/L and 6.47 MEQ/L
SODIUM [2]: 149.6 MEQ/L and 148.83 MEQ/L
TOTAL PROTEIN [2]: 6.06 G/DL and 6.27 G/DL
URIC ACID [2]: 1.04 mg/dL
ABSOLUTE BASOPHIL [3]: 130 cells/µL
ABSOLUTE EOSINOPHIL [3]: 70 cells/µL
ABSOLUTE LYMPHOCYTE [3]: 8670 cells/µL
ABSOLUTE MONOCYTE [3]: 160 cells/µL
ABSOLUTE SEGMENTED NEUTROPHIL [3]: 1530 cells/µL
BASOPHIL [3]: 1.13%
EOSINOPHIL [3]: 0.66%
ERYTHROCYTE COUNT [3]: 9.13 x10E6/uL
HEMATOCRIT [3]: 48.47%
HEMOGLOBIN [3]: 16.56 G/DL
LEUKOCYTE COUNT [3]: 10.5 x10E3/uL
LYMPHOCYTE [3]: 81.63%
MEAN CORPUSCULAR HEMOGLOBIN [3]: 18.16 pg
MEAN CORPUSCULAR HEMOGLOBIN CONCENTRATION [3]: 34.14 G/DL
MEAN CORPUSCULAR VOLUME [3]: 53.14 fL
MONOCYTE [3]: 1.53%
NEUTROPHIL [3]: 14.71%
PLATELET COUNT [3]: 1280.22 x10E3/uL
ALANINE AMINOTRANSFERASE [3]: 28.89 u/L
ALBUMIN [3]: 3.69 G/DL
ALKALINE PHOSPHATASE [3]: 101.11 u/L
ASPARTATE AMINOTRANSFERASE [3]: 70.67 u/L
BLOOD UREA NITROGEN [3]: 16.78 mg/dL
CHLORIDE [3]: 104.56 MEQ/L
CHOLESTEROL [3]: 58.78 mg/dL
CREATINE PHOSPHOKINASE [3]: 91.22 u/L
CREATININE [3]: 0.61 mg/dL
GLUCOSE [3]: 142.33 mg/dL
LACTATE DEHYDROGENASE [3]: 81.67 u/L
LIPASE [3]: 13 u/L
PHOSPHORUS [3]: 7.54 mg/dL
POTASSIUM [3]: 6.27 MEQ/L
SODIUM [3]: 149.89 MEQ/L
TOTAL BILIRUBIN [3]: 0.19 mg/dL
TOTAL PROTEIN [3]: 7.12 G/DL
URIC ACID [3]: 0.97 mg/dL
ABSOLUTE BASOPHIL [4]: 150 cells/µL
ABSOLUTE EOSINOPHIL [4]: 54 cells/µL
ABSOLUTE LYMPHOCYTE [4]: 8890 cells/µL
ABSOLUTE MONOCYTE [4]: 190 cells/µL
ABSOLUTE SEGMENTED NEUTROPHIL [4]: 2250 cells/µL
BASOPHIL [4]: 1.26%
EOSINOPHIL [4]: 0.46%
ERYTHROCYTE COUNT [4]: 8.34 x10E6/uL
HEMATOCRIT [4]: 48.66%
HEMOGLOBIN [4]: 16.04 G/DL
LEUKOCYTE COUNT [4]: 11.58 x10E3/uL
LYMPHOCYTE [4]: 76.74%
MEAN CORPUSCULAR HEMOGLOBIN [4]: 19.2 pg
MEAN CORPUSCULAR HEMOGLOBIN CONCENTRATION [4]: 32.92 G/DL
MEAN CORPUSCULAR VOLUME [4]: 58.32 fL
MONOCYTE [4]: 1.76%
NEUTROPHIL [4]: 19.44%
PLATELET COUNT [4]: 1282.6 x10E3/uL
ALANINE AMINOTRANSFERASE [4]: 27 u/L
ALBUMIN [4]: 3.68 G/DL
ALKALINE PHOSPHATASE [4]: 146.2 u/L
ASPARTATE AMINOTRANSFERASE [4]: 66.6 u/L
BLOOD UREA NITROGEN [4]: 12.4 mg/dL
CHLORIDE [4]: 104.6 MEQ/L
CHOLESTEROL [4]: 59.6 mg/dL
CREATINE PHOSPHOKINASE [4]: 121.8 u/L
CREATININE [4]: 0.6 mg/dL
GLUCOSE [4]: 143 mg/dL
LACTATE DEHYDROGENASE [4]: 87.8 u/L
LIPASE [4]: 17.4 u/L
PHOSPHORUS [4]: 8.68 mg/dL
POTASSIUM [4]: 6.02 MEQ/L
SODIUM [4]: 152.8 MEQ/L
TOTAL BILIRUBIN [4]: 0.26 mg/dL
TOTAL PROTEIN [4]: 6.92 G/DL
URIC ACID [4]: 0.52 mg/dL
ABSOLUTE BASOPHIL [5]: 72 cells/µL
ABSOLUTE EOSINOPHIL [5]: 44 cells/µL
ABSOLUTE LYMPHOCYTE [5]: 8990 cells/µL
ABSOLUTE MONOCYTE [5]: 220 cells/µL
ABSOLUTE SEGMENTED NEUTROPHIL [5]: 1360 cells/µL
BASOPHIL [5]: 0.68%
EOSINOPHIL [5]: 0.38%
ERYTHROCYTE COUNT [5]: 7.39 x10E6/uL
HEMATOCRIT [5]: 46.1%
HEMOGLOBIN [5]: 15.68 G/DL
LEUKOCYTE COUNT [5]: 10.75 x10E3/uL
LYMPHOCYTE [5]: 83.64%
MEAN CORPUSCULAR HEMOGLOBIN [5]: 21.26 pg
MEAN CORPUSCULAR HEMOGLOBIN CONCENTRATION [5]: 34.02 G/DL
MEAN CORPUSCULAR VOLUME [5]: 62.42 fL
MONOCYTE [5]: 2.06%
NEUTROPHIL [5]: 12.68%
PLATELET COUNT [5]: 1506.2 x10E3/uL
ALANINE AMINOTRANSFERASE [5]: 30.8 u/L
ALBUMIN [5]: 3.64 G/DL
ALKALINE PHOSPHATASE [5]: 238.8 u/L
ASPARTATE AMINOTRANSFERASE [5]: 76.4 u/L
BLOOD UREA NITROGEN [5]: 11.4 mg/dL
CHLORIDE [5]: 107.8 MEQ/L
CHOLESTEROL [5]: 61.4 mg/dL
CREATINE PHOSPHOKINASE [5]: 181.6 u/L
CREATININE [5]: 0.5 mg/dL
GLUCOSE [5]: 115 mg/dL
LACTATE DEHYDROGENASE [5]: 69.6 u/L
LIPASE [5]: 31.8 u/L
PHOSPHORUS [5]: 11.8 mg/dL
POTASSIUM [5]: 6.66 MEQ/L
SODIUM [5]: 150.8 MEQ/L
TOTAL BILIRUBIN [5]: 0.14 mg/dL
TOTAL PROTEIN [5]: 6.08 G/DL
URIC ACID [5]: 0.72 mg/dL
ABSOLUTE BASOPHIL [6]: 270 cells/µL
ABSOLUTE EOSINOPHIL [6]: 140 cells/µL
ABSOLUTE LYMPHOCYTE [6]: 10000 cells/µL
ABSOLUTE MONOCYTE [6]: 280 cells/µL
ABSOLUTE SEGMENTED NEUTROPHIL [6]: 2090 cells/µL
BASOPHIL [6]: 2.13%
